Eight molecules from article PMC1242219, “Anthracyclines, proteasome activity and multi-drug-resistance” (BMC Cancer, 2005) can be followed below.

Read-outs that look alike come from different tables or passages of the source. Peptide text beside a SMILES is read from it. * marks the point of attachment. Cbz = O=C(OCc1ccccc1)*

The subject of one series is ECV304 cells. Description: Drug accumulation assay: doxorubicin in cytoplasm and nuclear fraction of ECV304 cells. The conditions noted are these: MG-132 25 μM. The format is cell-based, human. The method, then:
Stock solutions of all cytotoxic drugs were obtained from the hospital pharmacy of the University Clinic Freiburg. […] Control cells were subjected to DMSO treatment alone (0.5 %).
Growth medium on cells was replaced by PBS for 40 minutes at 37°C. This was replaced by fresh PBS containing daunorubicin or doxorubicin and MG-132 or anthracyclines alone. […] After drug treatment, the cells were washed twice with PBS, re-suspended in either 4 ml lysis buffer (0.3 M sucrose, 0.05 mM EGTA pH 8.0, 60 mM KCl, 15 mM NaCl, 15 mM HEPES pH 7.5, 150 μM spermine, 50 μM spermidine) containing 20 μl triton X-100 for nuclear isolation or 400 μl of 50% ethanol in 1 M HCl (v/v) for whole cell lysis. For the latter, cells were vortexed and diluted with water to a final volume of 1.4 ml. The cells in lysis buffer were mixed and left on ice for 15 minutes before centrifuging. The nuclei (pellet) were then vortexed with 400 μl HCl/isopropanol.

A further series concerns the target T1, P-glycoprotein (Homo sapiens, UniProt P08183).
T1 construct: accumulation of daunorubicin in KB 8-5 cells that overexpress P-glycoprotein; endogenous in cells; host or cells: KB 8.5 (KB 8-5) cells, maintained under colchicine selection
The series is described as follows: Drug accumulation assay: daunorubicin fluorescence in P-gp overexpressing KB 8-5 cells. The conditions noted are these: different doses of MG-132 (0, 6.25, 12.5, 25, 50 μM), daunorubicin 10 μM, 45 minutes. The format is cell-based.

Another series deals with KB 8.5 cells. The series is described as follows: Apoptosis / morphological toxicity of KB 8.5 cells treated with MG-132. The format is cell-based, human. The text has this: The human epitheloid carcinoma cell line KB 8-5 is a well-characterized tumor cell line that over-expresses mdr-1 with associated MDR.
The next series concerns the target T2, 26S proteasome (Homo sapiens, UniProt P28074).
T2 construct: endogenous in cells; host or cells: ECV304 cells, crude extract
T2 sequence (P28074 60-263): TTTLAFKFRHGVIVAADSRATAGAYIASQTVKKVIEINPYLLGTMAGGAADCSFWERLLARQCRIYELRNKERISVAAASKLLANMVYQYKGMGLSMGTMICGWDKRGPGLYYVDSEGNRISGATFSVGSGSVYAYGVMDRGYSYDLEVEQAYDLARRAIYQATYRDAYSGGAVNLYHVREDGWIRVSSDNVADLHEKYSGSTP
The series is described as follows: Chymotrypsin-like 26S proteasome function in crude cell extracts (SucLLVY-AMC fluorogenic peptide assay). The class given is biochemical. The conditions noted are these: for Effect on 26S proteasome function: data not shown; for Chymotryptic 26S Proteasome Activity in Lysates from ECV 304 Cells: activity relative to 0 μM = 1, mean ± SEM. As for the experimental part: (§1) 20S and 26S proteasome function was measured as described previously (20). Briefly, cells were washed with PBS, then with buffer I (50 mM Tris, pH 7.4, 2 mM DTT, 5 mM MgCl2, 2 mM ATP), and pelleted by centrifugation. Glass beads and homogenization buffer (50 mM Tris, pH 7.4, 1 mM DTT, 5 mM MgCl2, 2 mM ATP, 250 mM sucrose) were added and vortexed for 1 minute. Beads and cell debris were removed by centrifugation at 1,000 × g for 5 minutes and 10,000 × g for 20 minutes. Protein concentration was determined by the BCA protocol (Pierce). One hundred μg protein of each sample was diluted with buffer I to a final volume of 1000 μl and the fluorogenic proteasome substrate SucLLVY-7-amido-4-methylcoumarin (chymotrypsin-like, Sigma) was added in a final concentration of 80 μM in 1% DMSO. To access 20S function, buffer I was replaced by an ATP-free buffer containing SDS (20 mM HEPES, pH 7.8; 0.5 mM EDTA, 0.03% SDS). Cleavage activity was monitored continuously by detection of free 7-amido-4-methylcoumarin using a fluorescence plate reader (Gemini, Molecular Devices) at 380/460 nm and 37°C. As controls for drug studies, 7-amido-4-methylcoumarin (AMC, 2 μM) was incubated with drugs in buffer I without cell extracts and measurements of proteasome function were corrected when necessary.

A further series concerns the target T3, 20S proteasome (Homo sapiens, UniProt P28074).
T3 construct: Chymotryptic 20S Proteasome Activity in Lysates from ECV 304 Cells; endogenous in cells; host or cells: ECV304 cells, crude extract
T3 sequence (P28074 60-263): T2 sequence (P28074 60-263)
Description: Chymotrypsin-like 20S proteasome function in crude cell extracts (ATP-free buffer with SDS, SucLLVY-AMC). The class given is biochemical. The method, then: as §1

Series [1] deals with proteasome function (Ub-GFP accumulation) in ECV304/10 cells. The series is described as follows: Proteasome function in living ECV304/10 cells stably transfected with Ub-R-GFP fusion protein (fluorescence microscopy). The conditions noted are these: 100 μM. The class given is cell-based, human. As for the experimental part:
ECV304 cells were plated at a density of 250.000 cells/well into six-well plates twelve hours before transfection. Cells were transfected with 5 μg of a plasmid (pEGFP-N1, Clontech) coding for an ubiquitin (Ub)-R-GFP fusion protein under control of a CMV promoter (a kind gift from Dr. M. Masucci, Karolinska Institute, Sweden) using the Superfect transfection kit (Qiagen) and following the manufacturer's instructions. Transfected cells were maintained in DMEM (10 % FSC, 1 % penicillin/streptomycin) supplemented with 500 μg/ml G418 (Sigma) and clones were obtained.

Where [2] appears, read: 6.25 μM, activity relative to 0 μM = 1, mean ± SEM.
The mark [3] stands for this setting: 25 μM, activity relative to 0 μM = 1, mean ± SEM.
Where [4] appears, read: 50 μM, activity relative to 0 μM = 1, mean ± SEM.
Setting [5] is: 100 μM, activity relative to 0 μM = 1, mean ± SEM.
[6] abbreviates: crude extracts of ECV304 cells, 0 – 100 μM drug, read-out: IC50, inhibition of 26S proteasome function.

T1 sequence (P08183 whole entry): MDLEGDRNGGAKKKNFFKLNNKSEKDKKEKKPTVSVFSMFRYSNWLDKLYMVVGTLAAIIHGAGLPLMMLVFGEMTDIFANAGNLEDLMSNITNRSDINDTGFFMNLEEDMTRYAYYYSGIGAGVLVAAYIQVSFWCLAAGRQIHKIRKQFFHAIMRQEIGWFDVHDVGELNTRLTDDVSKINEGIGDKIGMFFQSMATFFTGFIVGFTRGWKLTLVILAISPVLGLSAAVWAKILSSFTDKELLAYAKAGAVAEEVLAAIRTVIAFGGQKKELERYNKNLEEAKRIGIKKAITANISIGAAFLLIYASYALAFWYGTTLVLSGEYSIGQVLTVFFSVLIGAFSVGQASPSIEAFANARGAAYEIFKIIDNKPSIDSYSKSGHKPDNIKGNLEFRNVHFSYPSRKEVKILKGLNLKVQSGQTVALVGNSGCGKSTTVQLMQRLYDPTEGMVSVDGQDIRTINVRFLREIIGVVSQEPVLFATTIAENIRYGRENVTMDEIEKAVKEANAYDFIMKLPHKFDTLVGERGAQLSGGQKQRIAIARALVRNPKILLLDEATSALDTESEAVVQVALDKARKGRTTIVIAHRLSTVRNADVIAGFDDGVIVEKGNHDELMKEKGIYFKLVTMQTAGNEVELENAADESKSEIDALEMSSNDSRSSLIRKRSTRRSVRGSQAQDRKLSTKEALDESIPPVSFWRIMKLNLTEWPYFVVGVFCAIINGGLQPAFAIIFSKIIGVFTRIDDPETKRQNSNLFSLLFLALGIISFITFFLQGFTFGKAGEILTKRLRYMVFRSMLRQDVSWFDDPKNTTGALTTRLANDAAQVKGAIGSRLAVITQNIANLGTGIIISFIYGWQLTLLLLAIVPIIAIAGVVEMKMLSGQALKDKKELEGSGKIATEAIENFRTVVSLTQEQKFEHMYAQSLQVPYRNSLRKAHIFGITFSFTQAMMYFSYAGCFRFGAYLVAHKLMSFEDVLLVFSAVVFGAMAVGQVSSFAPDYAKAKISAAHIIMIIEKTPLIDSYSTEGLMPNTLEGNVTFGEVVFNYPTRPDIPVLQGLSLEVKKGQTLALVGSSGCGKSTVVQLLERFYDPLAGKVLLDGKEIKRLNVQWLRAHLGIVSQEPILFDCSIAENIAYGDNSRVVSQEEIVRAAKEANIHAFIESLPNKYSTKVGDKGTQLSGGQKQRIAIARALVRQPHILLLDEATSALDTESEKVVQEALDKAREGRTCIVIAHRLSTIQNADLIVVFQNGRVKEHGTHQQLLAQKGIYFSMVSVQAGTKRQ
Description for P-glycoprotein: Every 21 days P-gp-positive KB 8.5 cells were selected by addition of colchicine (10 ng/ml, Sigma). 24 hours before drug treatment cells were plated into 6-well plates (Costar) at a density of 10^6 cells/well.
Growth medium on cells was replaced by PBS for 40 minutes at 37°C. […] After drug treatment, the cells were washed twice with PBS, re-suspended in either 4 ml lysis buffer (0.3 M sucrose, 0.05 mM EGTA pH 8.0, 60 mM KCl, 15 mM NaCl, 15 mM HEPES pH 7.5, 150 μM spermine, 50 μM spermidine) containing 20 μl triton X-100 for nuclear isolation or 400 μl of 50% ethanol in 1 M HCl (v/v) for whole cell lysis. For the latter, cells were vortexed and diluted with water to a final volume of 1.4 ml. The cells in lysis buffer were mixed and left on ice for 15 minutes before centrifuging. The nuclei (pellet) were then vortexed with 400 μl HCl/isopropanol.

Regarding `CC(C)C[C@@H](C=O)NC(=O)[C@H](CC(C)C)NC(=O)[C@H](CC(C)C)NC(=O)OCc1ccccc1` [MG-132] (Cbz-Leu-Leu-Leu-aldehyde), the “Uptake of doxorubicin in the cytoplasm and in the nuclear fraction” value in the series on ECV304 cells was “increased uptake of doxorubicin”. Further, the “Accumulation of daunorubicin in KB 8-5 cells” value at P-glycoprotein is “increased, dose-dependent accumulation of daunorubicin”. In the series on KB 8.5 cells (KB 8-5 cells, 50 μM, 45 minutes of incubation), the “Morphological signs of toxicity” value was “no morphological signs of toxicity”. In addition, the Induction of apoptosis result in the series with KB 8.5 cells (KB 8.5 cells, 3.125 to 50 μM, within 24 hours, preliminary experiments) was “induced apoptosis”.
On to `CC[C@@]1(O)C(=O)OCc2c1cc1n(c2=O)Cc2cc3c(CN(C)C)c(O)ccc3nc2-1` [Topotecan, topotecan], for which, at 26S proteasome (crude extracts of ECV304 cells), the “Effect on 26S proteasome function” value is on record as “no measurable effect”.
What is called IC50 is the concentration needed to halve the response being measured. For the molecule `COc1cccc2c1C(=O)c1c(O)c3c(c(O)c1C2=O)C[C@@](O)(C(C)=O)C[C@@H]3O[C@H]1C[C@H](N)[C@H](O)[C@H](C)O1` [daunorubicin], the “Chymotryptic 20S Proteasome Activity in Lysates from ECV 304 Cells” value on 20S proteasome stood at 0.64 ± 0.07 n.s; on 20S proteasome (setting [2]), 0.62 ± 0.19 n.s; at 20S proteasome (setting [3]), 0.81 ± 0.05 n.s; at 20S proteasome (setting [4]), 0.95 ± 0.04 n.s; at 20S proteasome (setting [5]) it was 1.05 ± 0.1 n.s. Further, the “Inhibition of 20S proteasome function” value on 20S proteasome (crude extracts of ECV304 cells, up to 100 μM) is listed as “not”. Also, the “Chymotryptic 26S Proteasome Activity in Lysates from ECV 304 Cells” value was determined as 0.85 ± 0.05 at 26S proteasome (6.25 μM); 0.53 ± 0.11 on 26S proteasome (12.5 μM); 0.22 ± 0.09 at 26S proteasome (25 μM); 0.12 ± 0.06 at 26S proteasome (50 μM); 0.11 ± 0.06 on 26S proteasome (100 μM). Besides, the IC50 at 26S proteasome (setting [6]) is 13.7 µM. In addition, in series [1] (ECV304 Ub-GFP cells, 16 h (Figure 2 legend)), the “GFP accumulation indicating proteasome inhibition in living cells” value is recorded as “accumulation of GFP throughout the cytoplasm”.
As to `COc1cccc2c1C(=O)c1c(O)c3c(c(O)c1C2=O)C[C@@](O)(C(=O)CO)C[C@@H]3O[C@H]1C[C@H](N)[C@H](O)[C@H](C)O1` [doxorubicin], the IC50 at 20S proteasome came out at 5.8 µM; against 26S proteasome, 65.5 µM. The “GFP accumulation indicating inhibition of proteasome function in living cells” value in series [1] (ECV304/10 cells, 12 hours) is given as “GFP accumulated throughout the cytoplasm”.
For the molecule `COc1cccc2c1C(=O)c1c(O)c3c(c(O)c1C2=O)C[C@@](O)(C(=O)CO)C[C@@H]3O[C@H]1C[C@H](N)[C@@H](O)[C@H](C)O1` [epirubicin], the IC50 on 20S proteasome amounted to 12.5 µM; against 26S proteasome, 29.2 µM.
For `Nc1ccn([C@@H]2O[C@H](CO)[C@@H](O)C2(F)F)c(=O)n1` [gemcitabine], the “Effect on 26S proteasome function” value at 26S proteasome (crude extracts of ECV304 cells) is “no measurable effect”.
With `CC(=O)[C@]1(O)Cc2c(O)c3c(c(O)c2[C@@H](O[C@H]2C[C@H](N)[C@H](O)[C@H](C)O2)C1)C(=O)c1ccccc1C3=O` [idarubicin], the “Chymotryptic 20S Proteasome Activity in Lysates from ECV 304 Cells” value on 20S proteasome (setting [2]) was 0.67 ± 0.07; at 20S proteasome (12.5 μM, activity relative to 0 μM = 1, mean ± SEM), 0.67 ± 0.08; at 20S proteasome (setting [3]) it was 0.69 ± 0.05; at 20S proteasome (setting [4]), 0.67 ± 0.05; at 20S proteasome (setting [5]), 0.49 ± 0.11. Further, the IC50 is 92 µM at 20S proteasome (crude extracts of ECV304 cells) and 38.6 µM on 26S proteasome (setting [6]). The “Chymotryptic 26S Proteasome Activity in Lysates from ECV 304 Cells” value on 26S proteasome (6.25 μM) is 0.97 ± 0.03 n.s; at 26S proteasome (12.5 μM), 0.96 ± 0.02 n.s; at 26S proteasome (25 μM) it was 0.79 ± 0.12 n.s; on 26S proteasome (50 μM), 0.28 ± 0.09; on 26S proteasome (100 μM) it was 0.1 ± 0.06.
Regarding `CO[C@@]12[C@H](COC(N)=O)C3=C(C(=O)C(C)=C(N)C3=O)N1C[C@@H]1N[C@@H]12` [mitomycin C], the “Effect on 26S proteasome function” value at 26S proteasome (crude extracts of ECV304 cells) is listed as “no measurable effect”.
